Assay results reported in patent US20230356105A1, “TETRAAZADODECANE BASED CHELATING AGENTS FOR SEPARATION OF RARE EARTH ELEMENTS AND METHOD THEREFOR” (Ustav Organicke Chemie a Biochemie AV CR V.V.I., priority 2020, published 2023).
“And” between values parts separate entries of the source, which are not always exact repeats. Identical values can stand only once.

Columns and labels:
Type in all cases: physicochemical
[1] = Separation of Ho/Er mixture using L1 with repeated dissolution of the precipitate with heat (Example 12); conditions: for Precipitate concentration [mM] Ho: dissolved to 200 μL
Method: The experiment was conducted according to Example 11), the difference being that instead of dissolving the precipitate in acid and neutralizing by addition of base, 200 μL of water were added to the precipitate and the suspension was stirred at 80° C. for 24 hours. Full dissolution of the precipitate was not achieved during this process, but a saturated solution was formed. After cooling to room temperature, the mixtures were processed as though the precipitation had occurred normally. The resulting absolute concentrations of both metals in the supernatants and precipitates, as well as calculated values of the separation factor Er/Ho according to the formula from Example 11) are summarized in Table 6. […] Repetition of the cycles in this experiment also led to a higher degree of enrichment for one of the rare-earth elements. The average separation factor value was 2.97.

[2] = Removal of additive from remaining solution after precipitation by ultrafiltration (Example 25); conditions: Ln chelates of L5
[3] = Use of additives to improve separation of Nd/Dy mixture by precipitation with L5 (Example 18); conditions: no additive (0 mM); 11 mM L5
Method in brief: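 Mixtures held 5 mM NdCl3, 5 mM DyCl3 and 500 mM MOPS pH 7 with L5, plus additives at variable concentration adjusted to pH 7. Stirred 18 h in sealed cuvettes, then centrifuged; precipitate redissolved in 1 M HCl. Nd and Dy measured in supernatant and precipitate by ICP-OES.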

O=C(O)CN1CCN(CC(=O)O)CCN(Cc2ccccc2)CCN(CC(=O)O)CC1 [L1, 2,2′,2″-(10-benzyl-1,4,7,10-tetraazacyclododecane-1,4,7-triyl)triacetic Acid]
average separation factor value Er/Ho ([1]; all samples): 2.97
Separation factor Er/Ho ([1]; group A, 1st cycle): 2.89 and 2.84 and 3.04
Supernatant concentration [mM] Ho ([1]; group A, 1st cycle): 0.36 mM and 0.33 mM
Precipitate concentration [mM] Ho ([1]; group A, 1st cycle): 4.53 mM and 4.46 mM and 4.68 mM
Precipitate concentration [mM] Ho ([1]; group A, 1st cycle, mean): 4.56 mM
Supernatant concentration [mM] Ho ([1]; group A, 1st cycle, mean): 0.35 mM
Separation factor Er/Ho ([1]; group B, 2nd cycle): 2.69 and 2.94 and 3.69
Supernatant concentration [mM] Ho ([1]; group B, 2nd cycle (water, 80° C., 24 hours)): 0.27 mM and 0.32 mM and 0.25 mM
Supernatant concentration [mM] Ho ([1]; group B, 2nd cycle (water, 80° C., 24 hours), mean): 0.28 mM
Precipitate concentration [mM] Ho ([1]; group B, 2nd cycle): 3.89 mM and 3.98 mM and 3.64 mM
Precipitate concentration [mM] Ho ([1]; group B, 2nd cycle, mean): 3.84 mM
Separation factor Er/Ho ([1]; group C, 3rd cycle): 2.38 and 2.79 and 3.47
Supernatant concentration [mM] Ho ([1]; group C, 3rd cycle (water, 80° C., 24 hours)): 0.39 mM and 0.37 mM and 0.27 mM
Supernatant concentration [mM] Ho ([1]; group C, 3rd cycle (water, 80° C., 24 hours), mean): 0.34 mM
Precipitate concentration [mM] Ho ([1]; group C, 3rd cycle): 3.16 mM and 3.13 mM and 3.75 mM
Precipitate concentration [mM] Ho ([1]; group C, 3rd cycle, mean): 3.35 mM

O=C(O)CN1CCN(CC(=O)O)CCN(Cc2cccc3ccccc23)CCN(CC(=O)O)CC1 [L5, 2,2′,2″-(10-(naphthalene-1-ylmethyl)-1,4,7,10-tetraazacyklododekane-1,4,7-triyl)triacetic acid]
% of initial [chelate] in filtrate ([2]; additive acetate 76 mM): 0.8%
% of initial [chelate] in filtrate ([2]; additive benzoic acid 76 mM): 0.3%
% of initial [chelate] in filtrate ([2]; additive α-HIBA 30.4 mM): 0.4%
Precipitate concentration [mM] Dy [3]: 4.60 mM
Precipitate concentration [mM] Nd [3]: 4.98 mM
Supernatant concentration [mM] Dy [3]: 0.37 mM
Supernatant concentration [mM] Nd [3]: 0.07 mM
